#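 Step 1: Grow cells in 96-well plates. Step 2: Expose to compound for 48 hours at 5 concentrations. Step 3: Interpolate endpoints linearly; if unreached, use highest concentration. The concentration for 50% growth inhibition is given as GI50. TGI denotes the concentration required for complete inhibition of growth.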
# Assays:
# Test in all cases: growth of human tumour cells (NCI), 48 h
# CAKI-1 renal = test system: CAKI-1 renal
# K-562 leukemia = test system: K-562 leukemia
# MCF7 breast = test system: MCF7 breast
# OVCAR-5 ovarian = test system: OVCAR-5 ovarian
# PC-3 prostate = test system: PC-3 prostate
# SF-295 CNS = test system: SF-295 CNS
# SF-539 CNS = test system: SF-539 CNS
# SK-MEL-5 melanoma = test system: SK-MEL-5 melanoma
# UACC-257 melanoma = test system: UACC-257 melanoma
# SK-OV-3 ovarian = test system: SK-OV-3 ovarian
compound,measurement,setting,value
O=c1[nH]c(=S)[nH]c2c1CN(CCCN1CCOCC1)CN2,TGI,CAKI-1 renal,> 100 µM
same,TGI,K-562 leukemia,> 100 µM
same,TGI,MCF7 breast,> 100 µM
same,TGI,OVCAR-5 ovarian,> 100 µM
same,TGI,PC-3 prostate,57.1 µM
same,TGI,SF-295 CNS,> 100 µM
same,TGI,SF-539 CNS,58.2 µM
same,TGI,SK-MEL-5 melanoma,> 100 µM
same,TGI,UACC-257 melanoma,> 100 µM
CC(=O)OC(C)(C)/C(C)=C/C(=O)O[C@H]1C(=O)O[C@@H]2C[C@H]3[C@H](C)C(=O)C(O[C@@H]4O[C@H](CO)[C@@H](O)[C@H](O)[C@H]4O)=C[C@]3(C)[C@H]3[C@@H](O)[C@H](O)[C@@]4(C(=O)O)OC[C@]32[C@@H]14,GI50,CAKI-1 renal,> 100 µM
same,TGI,CAKI-1 renal,> 100 µM
same,GI50,K-562 leukemia,39.5 µM
same,TGI,K-562 leukemia,> 100 µM
same,GI50,MCF7 breast,27.6 µM
same,TGI,MCF7 breast,> 100 µM
same,GI50,OVCAR-5 ovarian,> 100 µM
same,TGI,OVCAR-5 ovarian,> 100 µM
same,GI50,PC-3 prostate,> 100 µM
same,TGI,PC-3 prostate,> 100 µM
same,GI50,SF-539 CNS,55.9 µM
same,TGI,SF-539 CNS,> 100 µM
same,GI50,SK-OV-3 ovarian,> 100 µM
same,TGI,SK-OV-3 ovarian,> 100 µM
same,GI50,UACC-257 melanoma,> 100 µM
same,TGI,UACC-257 melanoma,> 100 µM
C#CCSc1cc(Cl)c(C)cc1S(=O)(=O)Nc1nc2ccccc2o1,GI50,CAKI-1 renal,26.3 µM
same,TGI,CAKI-1 renal,67.9 µM
same,GI50,K-562 leukemia,69.8 µM
same,TGI,K-562 leukemia,> 100 µM
same,GI50,MCF7 breast,49.7 µM
same,TGI,MCF7 breast,> 100 µM
same,GI50,OVCAR-5 ovarian,51.6 µM
same,TGI,OVCAR-5 ovarian,> 100 µM
same,GI50,PC-3 prostate,32.6 µM
same,TGI,PC-3 prostate,> 100 µM
same,GI50,SF-295 CNS,25.5 µM
same,TGI,SF-295 CNS,61.2 µM
same,GI50,SF-539 CNS,20.2 µM
same,TGI,SF-539 CNS,39.1 µM
same,GI50,SK-MEL-5 melanoma,20.5 µM
same,TGI,SK-MEL-5 melanoma,40.2 µM
same,GI50,UACC-257 melanoma,29.4 µM
same,TGI,UACC-257 melanoma,81.6 µM
COC(=O)C(C(=O)OC)C1CCCC(=O)C1 (stereo not drawn),TGI,K-562 leukemia,> 100 µM
same,TGI,OVCAR-5 ovarian,> 100 µM
same,TGI,SF-295 CNS,> 100 µM
same,TGI,SF-539 CNS,> 100 µM
same,TGI,SK-MEL-5 melanoma,> 100 µM
same,TGI,SK-OV-3 ovarian,> 100 µM
same,TGI,UACC-257 melanoma,> 100 µM
CCC[CH2][Sn]1([CH2]CCC)[O]CC(CN(C)Cc2ccccc2)[O]1 (stereo not drawn),GI50,CAKI-1 renal,1.47 µM
same,TGI,CAKI-1 renal,7.13 µM
same,GI50,K-562 leukemia,2.76 µM
same,TGI,K-562 leukemia,12.9 µM
same,GI50,OVCAR-5 ovarian,12.7 µM
same,TGI,OVCAR-5 ovarian,25.3 µM
same,GI50,SF-295 CNS,9.13 µM
same,TGI,SF-295 CNS,22.4 µM
same,GI50,SF-539 CNS,7.2 µM
same,TGI,SF-539 CNS,20.6 µM
same,GI50,SK-MEL-5 melanoma,11.9 µM
same,TGI,SK-MEL-5 melanoma,24.3 µM
same,GI50,SK-OV-3 ovarian,15.6 µM
same,TGI,SK-OV-3 ovarian,33.2 µM
same,GI50,UACC-257 melanoma,7.85 µM
same,TGI,UACC-257 melanoma,20.2 µM
Cc1cccc(C)c1NC(=O)C1C(=O)N(c2c(C)cccc2C)C(=O)/C1=N\N (stereo not drawn),TGI,CAKI-1 renal,> 100 µM
same,TGI,K-562 leukemia,> 100 µM
same,TGI,OVCAR-5 ovarian,> 100 µM
same,TGI,SF-295 CNS,> 100 µM
same,TGI,SF-539 CNS,> 100 µM
same,TGI,SK-MEL-5 melanoma,> 100 µM
same,TGI,SK-OV-3 ovarian,> 100 µM
same,TGI,UACC-257 melanoma,> 100 µM
O=C(CCN1CCN(c2ccccc2)CC1)N1CCc2c([nH]c3ccccc23)C1c1cccnc1 (stereo not drawn),TGI,CAKI-1 renal,33.5 µM
same,TGI,K-562 leukemia,45 µM
same,TGI,OVCAR-5 ovarian,34.6 µM
same,TGI,SF-539 CNS,35.4 µM
same,TGI,SK-MEL-5 melanoma,28.9 µM
same,TGI,SK-OV-3 ovarian,33.7 µM
same,TGI,UACC-257 melanoma,31.5 µM
NC(=O)/N=C1/CCC2C3CCCC2C13,TGI,CAKI-1 renal,> 100 µM
same,TGI,K-562 leukemia,> 100 µM
same,TGI,OVCAR-5 ovarian,> 100 µM
same,TGI,SF-295 CNS,> 100 µM
same,TGI,SF-539 CNS,> 100 µM
same,TGI,SK-MEL-5 melanoma,> 100 µM
same,TGI,SK-OV-3 ovarian,> 100 µM
same,TGI,UACC-257 melanoma,> 100 µM
CCOC(=O)c1cc2c(cc1Cl)SC(N(c1ccc(OC)cc1)S(=O)(=O)c1ccc(Cl)cc1)=NS2(=O)=O,GI50,CAKI-1 renal,35.8 µM
same,TGI,CAKI-1 renal,> 100 µM
same,GI50,K-562 leukemia,38.6 µM
same,TGI,K-562 leukemia,> 100 µM
same,GI50,MCF7 breast,25.6 µM
same,TGI,MCF7 breast,68.2 µM
same,GI50,OVCAR-5 ovarian,> 100 µM
same,TGI,OVCAR-5 ovarian,> 100 µM
same,GI50,PC-3 prostate,20 µM
same,TGI,PC-3 prostate,58.6 µM
same,GI50,SF-295 CNS,54.9 µM
same,TGI,SF-295 CNS,> 100 µM
same,GI50,SF-539 CNS,15.1 µM
same,TGI,SF-539 CNS,31.2 µM
same,GI50,SK-MEL-5 melanoma,21.2 µM
same,TGI,SK-MEL-5 melanoma,54.4 µM
same,GI50,SK-OV-3 ovarian,> 100 µM
same,TGI,SK-OV-3 ovarian,> 100 µM
O=C1C=CC(=Nc2cc(Br)c(O)c(Br)c2)C=C1,GI50,CAKI-1 renal,26.4 µM
same,TGI,CAKI-1 renal,68 µM
same,GI50,K-562 leukemia,5.83 µM
same,TGI,K-562 leukemia,> 100 µM
same,GI50,MCF7 breast,7.87 µM
same,TGI,MCF7 breast,> 100 µM
same,GI50,OVCAR-5 ovarian,24.4 µM
same,TGI,OVCAR-5 ovarian,60.5 µM
same,GI50,SF-295 CNS,27 µM
same,TGI,SF-295 CNS,96.2 µM
same,GI50,SF-539 CNS,21.5 µM
same,TGI,SF-539 CNS,64.1 µM
same,GI50,SK-MEL-5 melanoma,15.6 µM
same,TGI,SK-MEL-5 melanoma,32.1 µM
same,GI50,SK-OV-3 ovarian,52.8 µM
same,TGI,SK-OV-3 ovarian,> 100 µM
same,GI50,UACC-257 melanoma,32.5 µM
same,TGI,UACC-257 melanoma,> 100 µM
COC(=O)c1cccn1C(=O)n1cccc1,TGI,CAKI-1 renal,> 100 µM
same,TGI,K-562 leukemia,> 100 µM
same,TGI,OVCAR-5 ovarian,> 100 µM
same,TGI,SF-295 CNS,> 100 µM
same,TGI,SF-539 CNS,> 100 µM
same,TGI,SK-MEL-5 melanoma,> 100 µM
same,TGI,SK-OV-3 ovarian,> 100 µM
same,TGI,UACC-257 melanoma,> 100 µM
Cc1cc(N2CCOCC2)nc(N[C@@H]2CCC[C@H](Nc3ccnc4cc(Cl)ccc34)C2)n1,GI50,K-562 leukemia,1.21 µM
same,TGI,K-562 leukemia,3.69 µM
same,GI50,MCF7 breast,1.76 µM
same,TGI,MCF7 breast,4.15 µM
same,GI50,OVCAR-5 ovarian,3.1 µM
same,TGI,OVCAR-5 ovarian,11.2 µM
same,GI50,PC-3 prostate,2.38 µM
same,TGI,PC-3 prostate,6.01 µM
same,GI50,SF-295 CNS,1.52 µM
same,TGI,SF-295 CNS,2.97 µM
same,GI50,SF-539 CNS,1.61 µM
same,TGI,SF-539 CNS,3.09 µM
same,GI50,SK-MEL-5 melanoma,1.86 µM
same,TGI,SK-MEL-5 melanoma,3.27 µM
same,GI50,SK-OV-3 ovarian,3.44 µM
same,TGI,SK-OV-3 ovarian,11.9 µM
same,GI50,UACC-257 melanoma,2.14 µM
same,TGI,UACC-257 melanoma,3.89 µM
COc1cc(C2SCC(=O)N2c2ncc(C)s2)cc(OC)c1OC (stereo not drawn),GI50,CAKI-1 renal,12 µM
same,TGI,CAKI-1 renal,> 50 µM
same,GI50,K-562 leukemia,23.5 µM
same,TGI,K-562 leukemia,> 50 µM
same,GI50,MCF7 breast,> 50 µM
same,TGI,MCF7 breast,> 50 µM
same,GI50,OVCAR-5 ovarian,> 50 µM
same,TGI,OVCAR-5 ovarian,> 50 µM
same,GI50,PC-3 prostate,31.4 µM
same,TGI,PC-3 prostate,> 50 µM
same,GI50,SF-295 CNS,9.23 µM
same,TGI,SF-295 CNS,> 50 µM
same,GI50,SF-539 CNS,13.5 µM
same,TGI,SF-539 CNS,43.9 µM
same,GI50,SK-MEL-5 melanoma,17.3 µM
same,TGI,SK-MEL-5 melanoma,> 50 µM
same,GI50,UACC-257 melanoma,> 50 µM
same,TGI,UACC-257 melanoma,> 50 µM
C/C(CC(=O)Nc1ccc(C)c(C)c1)=N\NC(N)=O,TGI,K-562 leukemia,> 100 µM
same,TGI,OVCAR-5 ovarian,> 100 µM
same,TGI,SF-295 CNS,> 100 µM
same,TGI,SF-539 CNS,> 100 µM
same,TGI,SK-MEL-5 melanoma,> 100 µM
same,TGI,SK-OV-3 ovarian,> 100 µM
same,TGI,UACC-257 melanoma,> 100 µM
CC(C)([NH-])CO.CC(C)([NH-])CO.[Cl][Cd][Cl],GI50,CAKI-1 renal,18.3 µM
same,TGI,CAKI-1 renal,32.3 µM
same,GI50,K-562 leukemia,18.7 µM
same,TGI,K-562 leukemia,40 µM
same,GI50,OVCAR-5 ovarian,16.8 µM
same,TGI,OVCAR-5 ovarian,30.5 µM
same,GI50,SF-295 CNS,> 100 µM
same,TGI,SF-295 CNS,> 100 µM
same,GI50,SF-539 CNS,18.7 µM
same,TGI,SF-539 CNS,33.2 µM
same,GI50,SK-MEL-5 melanoma,4.47 µM
same,GI50,UACC-257 melanoma,> 100 µM
same,TGI,UACC-257 melanoma,> 100 µM
Cc1ccc(NC(=O)CC2Sc3ccccc3NC2=O)c(C)c1 (stereo not drawn),TGI,CAKI-1 renal,63.3 µM
same,TGI,K-562 leukemia,19 µM
same,TGI,OVCAR-5 ovarian,73 µM
same,TGI,SF-295 CNS,40.2 µM
same,TGI,SF-539 CNS,29.6 µM
same,TGI,SK-MEL-5 melanoma,30.9 µM
same,TGI,SK-OV-3 ovarian,33 µM
same,TGI,UACC-257 melanoma,39.7 µM
O=[P+](O)c1ccsc1,TGI,CAKI-1 renal,> 100 µM
same,TGI,K-562 leukemia,> 100 µM
same,TGI,SF-539 CNS,> 100 µM
same,TGI,SK-MEL-5 melanoma,> 100 µM
same,TGI,SK-OV-3 ovarian,> 100 µM
O=C(c1ccccc1)C1OC12C(=O)Nc1c(Cl)cc(Cl)cc12 (stereo not drawn),TGI,CAKI-1 renal,> 78 µM
same,TGI,K-562 leukemia,46.1 µM
same,TGI,OVCAR-5 ovarian,> 100 µM
same,TGI,SF-295 CNS,> 100 µM
same,TGI,SF-539 CNS,> 100 µM
same,TGI,SK-MEL-5 melanoma,> 100 µM
same,TGI,SK-OV-3 ovarian,> 100 µM
same,TGI,UACC-257 melanoma,> 100 µM
Oc1ccc(C(c2ccc(O)cc2)c2ccc(O)cc2)cc1,TGI,CAKI-1 renal,40 µM
same,TGI,MCF7 breast,> 100 µM
same,TGI,PC-3 prostate,66.5 µM
same,TGI,SF-295 CNS,> 100 µM
same,TGI,SF-539 CNS,46 µM
same,TGI,SK-MEL-5 melanoma,30.6 µM
same,TGI,SK-OV-3 ovarian,42 µM
same,TGI,UACC-257 melanoma,52.4 µM
